≈ marks a conversion by molar mass, not a printed value. Where two headings read alike, the source gives them in different places. Residues, ends and D or L forms follow the SMILES beside them.
Key:
[1] = system: Pseudomonas aeruginosa (deposit number: NBRC106052 strain); test: Minimum inhibitory concentration (MIC) test; assay type: cell-based
Method: A compound (hereinafter, sometimes referred to as a substance to be evaluated) that is a component of a biofilm treatment agent is diluted stepwise with a bouillon medium for testing susceptibility to prepare a total amount of 10 mL of dilution series (with the proviso of being 1.1 times the target concentration). 20 μL of a bacterial suspension which has been prepared such that there is 10^8 cfu/mL of Pseudomonas aeruginosa (deposit number: NBRC106052 strain) which is a representative strain of biofilm-forming bacteria as a test bacterial strain is added thereto and subjected to shaking culture (2000 rpm) with a 96-well microplate mixer at 37° C. for 24 hours. The lowest concentration in the dilution series which is not visually turbid is regarded as the MIC.
Pseudomonad (gram-negative bacterium) known as a model bacterium forming a biofilm was used as a test bacterium to MIC's of compounds (hereinafter, substances to be evaluated) that are components of a biofilm treatment agent.
(1) Test Bacterium Pseudomonas aeruginosa (Deposit Number: NBRC106052 Strain)
Each substance to be evaluated was diluted stepwise with a bouillon medium for testing susceptibility to prepare a total amount of 10 mL of dilution series (with the proviso of being 1.1 times the target concentration). 20 μL of a bacterial suspension which had been prepared such that there was 10^8 cfu/mL of a test bacterial strain was added thereto and subjected to shaking culture (2000 rpm) with a 96-well microplate mixer at 37° C. for 24 hours. The lowest concentration in the dilution series which was not visually turbid was regarded as the MIC.

[2] = system: Pseudomonas aeruginosa (deposit number: NBRC106052 strain) biofilm; test: Evaluation of biofilm-removing effect (crystal violet staining of pre-formed biofilm); assay type: cell-based; conditions: Table 4: anthranilic acid analog and/or biosurfactant or synthetic surfactant, each at Table 2 concentration, pH 7.0, 3.5 hours contact
Description: In the present invention, the biofilm-removing effect is an action of removing biofilms formed by bacteria. Examples of methods for evaluating an effect of removing substances to be evaluated include a method for comparing the amount of biofilm formed after bringing the substance to be evaluated into contact with a biofilm formed through culturing bacteria for a certain period of time with the amount of biofilm (control) formed after the elapse of a certain period of time without the biofilm being brought into contact with the substance to be evaluated. In this case, when the amount of biofilm formed is smaller than that of the control, it can be determined that the substance to be evaluated has a biofilm-removing effect.
(i) A triptic soy broth (TBS, Bacto: manufactured by Difco Laboratories) medium having a final concentration of glucose of 1% is used for Pseudomonas aeruginosa (deposit number: NBRC106052 strain) which is a representative strain of biofilm-forming bacteria to prepare a preculture solution under the condition of 120 rpm.
(ii) The preculture solution of which the turbidity (OD) is adjusted to 0.1 is diluted with a TSB medium so that the final concentration is 0.000005% (v/v), and 2 mL of the diluent is dispensed into a 12-well plate. Here, the following OD (turbidity) is a value which is measured with a spectrophotometer (iMark Microplate Reader: manufactured by Bio-Rad Laboratories, Inc.) at a wavelength of 630 nm in which distilled water is used as a blank.
(iii) Culture is performed under the conditions of 37° C. and 130 rpm for 17 hours to form a biofilm.
(iv) The culture solution in each well is removed and each well is rinsed twice with distilled water.
(v) A substance to be evaluated is added to a medium at an appropriate concentration less than the MIC of the target substance, and the pH of the medium is adjusted to 7.0 with hydrochloric acid or sodium hydroxide. 2 mL of a sterile medium (pH=7.0) is added to each well to be used as a negative control.
(vi) Each well is shaken at the same temperature as that of the preculture for 3.5 hours at 130 rpm, the biofilm is brought into contact with the medium containing the substance to be evaluated, and then, the medium in each well is removed, and each well is rinsed twice with distilled water.
(vii) 2 mL of an aqueous crystal violet solution (0.4 w/v %, 20 w/v % methanol) is added to the biofilm adhering in each well, allowed to stand for 2 minutes, and allowed to stain, and then, the stained biofilm is rinsed three times with distilled water, and the aqueous crystal violet solution which has not been bound to the biofilm is removed.
(viii) 2 mL of ethanol is added to each well and allowed to stand for 1 hour to elute crystal violet from the stained biofilm, and the absorbance is measured. Here, the following absorbance is a value which is measured with a spectrophotometer (iMark Microplate Reader: manufactured by Bio-Rad Laboratories, Inc.) at a wavelength of 595 nm in which distilled water is used as a blank.
(ix) Regarding the absorbance of the negative control and each substance to be evaluated, absorbances measured for 4 wells are taken as an average value, and the removal rate of each biofilm is calculated from the following calculation equation.
Biofilm removal rate (%)={1-(absorbance of substance to be evaluated/absorbance of negative control)}×100
The biofilm-removing effect and the biofilm formation-inhibiting effect of each of the substances to be evaluated shown in Table 1 were confirmed according to the evaluation methods specified in the present invention using each biofilm treatment agent containing each substance to be evaluated as a biofilm treatment agent component. In addition, evaluation results of the biofilm-removing effect and the biofilm formation-inhibiting effect of each aromatic monohydric alcohol alone are shown in […]

[3] = bouillon medium, 37° C., 24 hours, lowest concentration not visually turbid
[4] = Pseudomonas aeruginosa, NBRC106052, 24 h
[5] = Pseudomonas aeruginosa, NBRC106052, bouillon medium, 37° C., 24 hours, lowest concentration not visually turbid, read-out: MIC

For polyoxyethylene lauryl ether [POELE], the MIC [1, 3] was >2,000 ppm.

For `COC(=O)c1ccccc1N` [Comparative Example 6, Methyl anthranilate], the “Removal results (removal rate %)” value [2] was 33% and the MIC [1, 4] was 1250 µg/mL (≈ 8.27 mM).

With `CC(C)CCCCCCCCC[C@@H]1CC(=O)N[C@@H](CCC(=O)O)C(=O)N[C@@H](CC(C)C)C(=O)N[C@H](CC(C)C)C(=O)N[C@@H](C(C)C)C(=O)N[C@@H](CC(=O)O)C(=O)N[C@H](CC(C)C)C(=O)N[C@@H](CC(C)C)C(=O)O1` [Comparative Example 9, Surfactin] (HELM PEPTIDE1{E.L.[dL].V.D.[dL].L}|CHEM1{[CC(C)CCCCCCCCC[C@H](CC(=O)[*:1])O[*:2]]}$PEPTIDE1,CHEM1,1:R1-1:R1|PEPTIDE1,CHEM1,7:R2-1:R2$$$V2.0) the “Removal results (removal rate %)” value [2] was 24% and the MIC [1, 5] was 10000 µg/mL (≈ 9.65 mM).

`CCCCCCCCCCCCOS(=O)(=O)[O-].[Na+]` [SDS, sodium dodecyl sulfate] gave an MIC [1, 5] of 2000 µg/mL.

With Sophorolipid [Comparative Example 10] the “Removal results (removal rate %)” value [2] was 36% and the MIC [1, 3] was >10,000 ppm.

`OCCc1ccccc1` [Example 3, 2-Phenylethanol] showed an MIC [1, 5] of 5000 µg/mL (≈ 40.9 mM).

`OCCOc1ccccc1` [Example 4, 2-Phenoxyethanol] was tested, and the MIC [1, 4] was 2500 µg/mL (≈ 18.1 mM).

For `CCCCCO` [Comparative Example 1, 1-Pentanol], the MIC [1, 5] was > 5000 µg/mL.

`N#CC(Br)(Br)C(N)=O` [compound 4, 2,2-dibromo-3-nitrilopropionamide] gave an MIC [1, 5] of 19.5 µg/mL (≈ 0.0806 mM).

With `OCC(O)COc1ccccc1` (stereo not drawn) [compound 3, 3-Phenoxy-1,2-propanediol] the MIC [1, 4] was > 5000 µg/mL.

In the case of `Nc1ccccc1C(=O)O` [Comparative Example 7, Anthranilic acid], the “Removal results (removal rate %)” value [2] is reported as 20% and the MIC [1, 4] is reported as 10000 µg/mL (≈ 72.9 mM).

Work on `OCc1ccccc1` [Example 1, 1-Phenylmethanol] yielded an MIC [1, 5] of 2500 µg/mL (≈ 23.1 mM).

`NC(=O)c1ccccc1N` [Comparative Example 5, Anthranylamide] was tested, and the “Removal results (removal rate %)” value [2] was 25% and the MIC [1, 3] was 5,000 ppm.

Rhamnolipid [Comparative Example 8] was tested, and the “Removal results (removal rate %)” value [2] was 24% and the MIC [1, 3] was >10,000 ppm.

For `OCC=Cc1ccccc1` [Example 6, Cinnamyl alcohol], the MIC [1, 5] was 2500 µg/mL (≈ 18.6 mM).

`OCCCOc1ccccc1` [Example 5, 3-Phenoxy-1-propanol] gave an MIC [1, 4] of 2500 µg/mL (≈ 16.4 mM).

For `CC(O)c1ccccc1` (stereo not drawn) [Example 2, 1-Phenylethanol], the MIC [1, 4] was 5000 µg/mL (≈ 40.9 mM).

`OCC(CO)c1ccccc1` [compound 2, 2-Phenyl-1,3-propanediol] was tested, and the MIC [1, 5] was > 5000 µg/mL.

Source: patent US20220378043A1, “BIOFILM TREATMENT AGENT AND BIOFILM TREATMENT METHOD” (SEIKO PMC CORPORATION, priority 2019, published 2022)
